# Biological target: BTK, recombinant human catalytic domain (aa 393-659) (Homo sapiens (Human), UniProt Q06187)
# Assay: In vitro BTK kinase activity measured by time-resolved fluorescence resonance energy transfer (trFRET)
# Assay type: biochemical
# Conditions: read-out: Btk IC50
# Chain of BTK, recombinant human catalytic domain (aa 393-659) (Q06187 393-659): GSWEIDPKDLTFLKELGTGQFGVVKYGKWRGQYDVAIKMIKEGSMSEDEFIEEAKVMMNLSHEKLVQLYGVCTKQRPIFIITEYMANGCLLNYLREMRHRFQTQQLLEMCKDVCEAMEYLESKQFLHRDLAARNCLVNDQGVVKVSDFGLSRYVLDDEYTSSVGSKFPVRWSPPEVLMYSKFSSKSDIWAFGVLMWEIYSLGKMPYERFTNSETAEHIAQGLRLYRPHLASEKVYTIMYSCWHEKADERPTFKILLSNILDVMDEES
row,Compound,IC50 [nM]
1,C=CC(=O)N1CCC[C@H](c2cnc(C(N)=O)c3sc(-c4cnn(C)c4)nc23)C1 [E.9.36],< 100
2,C=CC(=O)N1CCC[C@@H](c2cnc(C(N)=O)c3sc(-c4cnn(C)c4)nc23)C1 [E.9.37],< 100
3,C=CC(=O)N1CC[C@H](c2ccc(C(N)=O)c3[nH]c(-c4cnn(C)c4)cc23)C1 [E.9.48],< 100
4,C=CC(=O)N1CC[C@@H](c2ccc(C(N)=O)c3[nH]c(-c4cnn(C)c4)cc23)C1 [E.9.49],100 to 1000
5,CCC(=O)N1CC[C@H](c2ccc(C(N)=O)c3[nH]c(C)cc23)C1 [E.10.1],100 to 1000
6,CCC(=O)N1CC[C@@H](c2ccc(C(N)=O)c3[nH]c(C)cc23)C1 [E.10.2],100 to 1000
7,C=CC(=O)N1CCC[C@@H](c2ccc(C(N)=O)c3[nH]c(-c4cnn(C)c4)cc23)C1 [Example 4.1],< 100
8,C=CC(=O)N1CCC[C@H](c2ccc(C(N)=O)c3[nH]c(-c4cnn(C)c4)cc23)C1 [Example 4.2],< 100
9,"Cc1c(-c2ccc(C(N)=O)c3[nH]c(C4=CCNCC4)cc23)cccc1-n1cnc2ccccc2c1=O [G.1.1, 4-(2-methyl-3-(4-oxoquinazolin-3(4H)-yl)phenyl)-2-(1,2,3,6-tetrahydropyridin-4-yl)-1H-indole-7-carboxamide]",< 100
10,C=C(CN)C(=O)Nc1cccc(-c2ccc(C(N)=O)c3[nH]ccc23)c1 [G.1.2],< 100
11,C=C(CNC)C(=O)Nc1cccc(-c2ccc(C(N)=O)c3[nH]ccc23)c1 [G.1.3],< 100

# Other lines, results leading:
row,IC50 [nM],Compound
1,< 100,C=CC(=O)N1CCOC[C@@H](c2ccc(C(N)=O)c3[nH]ccc23)C1 [E.9.38]
2,1000 to 10000,C=CC(=O)N1CCOC[C@H](c2ccc(C(N)=O)c3[nH]ccc23)C1 [E.9.39]
3,100 to 1000,C=CC(=O)N1CC[C@@H](c2ccc(C(N)=O)c3[nH]c(C)cc23)C1 [E.9.40*]
4,100 to 1000,C=CC(=O)N1CC[C@H](c2ccc(C(N)=O)c3[nH]c(C)cc23)C1 [E.9.41*]
5,100 to 1000,C=CC(=O)N1C[C@H]2CN(c3ccc(C(N)=O)c4[nH]ccc34)C[C@H]21 [E.9.42]
6,100 to 1000,C=CC(=O)N1C[C@@H]2CN(c3ccc(C(N)=O)c4[nH]ccc34)C[C@@H]21 [E.9.43]
7,100 to 1000,C=CC(=O)N1C[C@H](CO)C[C@@H](c2ccc(C(N)=O)c3[nH]ccc23)C1 [E.9.44]
8,1000 to 10000,C=CC(=O)N1C[C@@H](CO)C[C@@H](c2ccc(C(N)=O)c3[nH]ccc23)C1 [E.9.45]
9,1000 to 10000,C=CC(=O)N1C[C@@H](CO)C[C@H](c2ccc(C(N)=O)c3[nH]ccc23)C1 [E.9.46]
10,100 to 1000,C=CC(=O)N1C[C@H](CO)C[C@H](c2ccc(C(N)=O)c3[nH]ccc23)C1 [E.9.47]
11,< 100,C=CC(=O)N[C@@H]1CC[C@@H](c2ccc(C(N)=O)c3[nH]ccc23)C1 [E.9.50]
12,100 to 1000,C=CC(=O)N1CCC[C@@H](c2cnc(C(N)=O)c3[nH]ccc23)C1 [E.9.51]
13,100 to 1000,C=CC(=O)N1CCC[C@H](c2cnc(C(N)=O)c3[nH]ccc23)C1 [E.9.52]
14,100 to 1000,C=CC(=O)N1CCOC[C@@H](c2cnc(C(N)=O)c3[nH]ccc23)C1 [Example 3.1]
15,100 to 1000,C=CC(=O)N1CCOC[C@H](c2cnc(C(N)=O)c3[nH]ccc23)C1 [Example 3.2]
16,< 100,C=CC(=O)N1CC(N(C)c2ccc(C(N)=O)c3[nH]c([C@@H]4CCOC4)cc23)C1 [Example 5.1]
17,< 100,C=CC(=O)N1CC(N(C)c2ccc(C(N)=O)c3[nH]c([C@H]4CCOC4)cc23)C1 [Example 5.2]

# Same assay, conditions: trFRET, 0.001 mM ATP, biotin-TYR1 peptide substrate; read-out: Btk IC50
row,Compound,IC50 [nM]
1,"Cc1c(NC(=O)c2nccs2)cccc1-c1ccc(C(N)=O)c2[nH]c(-c3ccccc3CN)cc12 [Example 1, N-(3-(2-(2-(aminomethyl)phenyl)-7-carbamoyl-1H-indol-4-yl)-2-methylphenyl)thiazole-2-carboxamide]",100 to 1000
2,"Cc1c(N)cccc1-c1cnc(C(N)=O)c2[nH]ccc12 [Example 2, 4-(3-Amino-2-methylphenyl)-1H-pyrrolo[2,3-c]pyridine-7-carboxamide]",1000 to 10000
3,"Cc1c(NC(=O)c2nccs2)cccc1-c1ccc(C(N)=O)c2[nH]cc(C)c12 [Example 3, N-(3-(7-carbamoyl-3-methyl-1H-indol-4-yl)-2-methylphenyl)thiazole-2-carboxamide]",100 to 1000
4,"C=CC(=O)Nc1cc(NCc2nccs2)cc(-c2ccc(C(N)=O)c3[nH]c(C4=CCN(S(C)(=O)=O)CC4)cc23)c1 [Example 6, 4-(3-Acrylamido-5-(thiazol-2-ylmethylamino)phenyl)-2-(1-(methylsulfonyl)-1,2,3,6-tetrahydropyridin-4-yl)-1H-indole-7-carboxamide]",< 100
5,"C/C(O)=C(/C#N)C(=O)Nc1cccc(-c2ccc(C(N)=O)c3[nH]ccc23)c1 [Example 7, (E)-4-(3-(2-Cyano-3-hydroxybut-2-enamido)phenyl)-1H -indole-7-carboxamide]",1000 to 10000
6,"CS(=O)(=O)N1CC=C(c2cc3c(N4CCC[C@@H](N5CCCCC5=O)C4)ccc(C(N)=O)c3[nH]2)CC1 [Example 12, (R)-2-(1-(Methylsulfonyl)-1,2,3,6-tetrahydropyridin-4-yl)-4-(2-oxo-1,3′-bipiperidin-1′-yl)-1H-indole-7-carboxamide]",100 to 1000
7,"CS(=O)(=O)N1CC=C(c2cc3c(N4CCC[C@@H](N5CCc6ccccc6C5=O)C4)ccc(C(N)=O)c3[nH]2)CC1 [Example 13, (R)-2-(1-(Methylsulfonyl)-1,2,3,6-tetrahydropyridin-4-yl)-4-(3-(1-oxo-3,4-dihydroisoquinolin-2(1H)-yl)piperidin-1-yl)-1H-indole-7-carboxamide]",< 100
8,"CS(=O)(=O)N1CC=C(c2cc3c(N4CCC[C@@H](NC(=O)c5nccs5)C4)ccc(C(N)=O)c3[nH]2)CC1 [Example 13A, (R)—N-(1-(7-Carbamoyl-2-(1-(methylsulfonyl)-1,2,3,6-tetrahydropyridin-4-yl)-1H-indol-4-yl)piperidin-3-yl)thiazole-2-carboxamide]",< 100
9,"Cc1c(-c2ccc(C(N)=O)c3[nH]c(-c4cnn(C)c4)nc23)cccc1-n1cnc2ccccc2c1=O [Example 14, 2-(1-Methyl-1H-pyrazol-4-yl)-4-(2-methyl-3-(4-oxoquinazolin-3(4H)-yl)phenyl)-1H-benzo[d]imidazole-7-carboxamide]",100 to 1000
10,"N#CCNC(=O)c1cccc(-c2ccc(C(N)=O)c3[nH]ccc23)c1 [Example 15, 4-(3-((Cyanomethyl)carbamoyl)phenyl)-1H-indole-7-carboxamide]",1000 to 10000
11,"Cc1c(N)cccc1-c1ccc(C(N)=O)c2[nH]ccc12 [Example 16, 4-(3-Amino-2-methylphenyl)-1H-indole-7-carboxamide]",1000 to 10000
12,"C=CC(=O)Nc1cccc(-c2cnc(C(N)=O)c3[nH]ccc23)c1C [Example 17, 4-(3-Acrylamido-2-methylphenyl)-1H-pyrrolo[2,3-c]pyridine-7-carboxamide]",< 100
13,"C=CC(=O)Nc1cccc(-c2ccc(C(N)=O)c3[nH]ncc23)c1 [Example 18, 4-(3-Acrylamidophenyl)-1H-indazole-7-carboxamide]",< 100
14,"C=CC(=O)Nc1cccc(-c2ccc(C(N)=O)c3[nH]c(C)cc23)c1 [Example 19, 4-(3-Acrylamidophenyl)-2-methyl-1H-indole-7-carboxamide]",< 100
15,"C=CC(=O)Nc1cccc(-c2ccc(C(N)=O)c3[nH]c(CC)cc23)c1 [Example 20, 4-(3-Acrylamidophenyl)-2-ethyl-1H-indole-7-carboxamide]",< 100
16,"Cc1c(N)cccc1-c1ccc(C(N)=O)c2[nH]c(C3=CCC(F)(F)CC3)cc12 [Example 21, 4-(3-Amino-2-methylphenyl)-2-(4,4-difluorocyclohex-1-enyl)-1H-indole-7-carboxamide]",< 100
17,"C=CC(=O)Nc1cccc(-c2ccc(C(N)=O)c3[nH]c(CCOCC)cc23)c1 [Example 22, 4-(3-Acrylamidophenyl)-2-(2-ethoxyethyl)-1H-indole-7-carboxamide]",< 100
18,"C=CC(=O)Nc1cccc(-c2ccc(C(N)=O)c3[nH]c(CCO)cc23)c1 [Example 23, 4-(3-Acrylamidophenyl)-2-(2-hydroxyethyl)-1H-indole-7-carboxamide]",< 100
19,"C=CC(=O)N1CCCC(c2ccc(C(N)=O)c3[nH]c(-c4cnn(C)c4)cc23)C1 (stereo not shown) [Example 26, 4-(1-Acryloylpiperidin 3-yl)-2-(1-methyl-1H-pyrazol-4-yl)-1H-indole-7-carboxamide]",< 100
20,"NC(=O)c1ccc(I)c2cc(-c3cccnc3)[nH]c12 [F.1, 4-iodo-2-(pyridin-3-yl)-1H-indole-7-carboxamide]",100 to 1000
21,"Cc1c(-c2ccc(C(N)=O)c3[nH]c(C4=CCNC4)cc23)cccc1-n1cnc2ccccc2c1=O [G.1, 2-(2,5-Dihydro-1H-pyrrol-3-yl)-4-(2-methyl-3-(4-oxoquinazolin-3(4H)-yl)phenyl)-1H-indole-7-carboxamide]",< 100

# Next, values leading:
row,IC50 [nM],Compound
1,100 to 1000,"C=CC(=O)N1CCc2cc(C(N)=O)c3[nH]ccc3c21 [Example 4, 1-Acryloyl-1,2,3,6-tetrahydropyrrolo[2,3-e]indole-5-carboxamide]"
2,1000 to 10000,"C=CC(=O)Nc1ccc(C(N)=O)c2[nH]ccc12 [Example 5, 4-Acrylamido-1H-indole-7-carboxamide]"
3,< 100,"C=CC(=O)N1CC(N(C)c2ccc(C(N)=O)c3[nH]ccc23)C1 [Example 24, 4-((1-Acryloylazetidin-3-yl)(methyl)amino)-1H-indole-7-carboxamide]"
4,100 to 1000,"C=CC(=O)N1CCCC(c2ccc(C(N)=O)c3[nH]ccc23)C1 (stereo not shown) [Example 25, 4-(1-Acryloylpiperidin-3-yl)-1H-indole-7-carboxamide]"
5,< 100,"C=CC(=O)N1CC(Oc2ccc(C(N)=O)c3[nH]ccc23)C1 [Example 27, 4-((1-Acryloylazetidin-3-yl)oxy)-1H-indole-7-carboxamide]"
6,< 100,"C=CC(=O)N1CC(N(C)c2cnc(C(N)=O)c3[nH]ccc23)C1 [Example 29, 4-((1-Acryloylazetidin-3-yl)(methyl)amino)-1H-pyrrolo[2,3-c]pyridine-7-carboxamide]"
